Where a name gives a salt, the structure may show the parent alone.
Legend:
intraocular pressure = test: Intraocular pressure in rabbits after topical application to the eye (tonometric, Alcon Applanation Pneumotonograph); assay type: in vivo, white New Zealand rabbits; settings: 2 drops (50 μl) per eye, rabbit
Procedure: B=2-Amino-6-allyl-5,6,7,8-tetrahydro-4H-thiazolo[4,5-d]azepine dihydrochloride. The tests were performed on white New Zealand rabbits of both sexes having a body weight of 2.5 to 3 kg. Each rabbit was used for 4 tests at intervals of at least 3 days between tests.
The intraocular pressure was measured tonometrically with an Alcon Applanation Pneumotonograph (APTG) calibrated for the human eye. By means of a factor obtained by comparison of the manometric values and APTG values in rabbits anesthetized with urethane, the so-called real pressures were determined. Moreover, before each measurement the cornea was anesthetized with 20 μl of an 0.05% oxybuprocain [2-(diethylamino)-ethyl-4-amino-3-butoxy-benzoate] solution.
The test compound was dropped at different concentrations directly into each eye, 2 drops (50 μl) per eye.

[1] = Oral acute toxicity (LD50) in the mouse; settings: in vivo
Description: Furthermore, the compounds of the formula I and their non-toxic, pharmacologically acceptable acid addition salts show good compatibility.

Structure (SMILES)	Values of the intraocular pressure in mmHg after one hour (intraocular pressure; 0.01% concentration)	Values of the intraocular pressure in mmHg after one hour (intraocular pressure; 0.03% concentration)	Values of the intraocular pressure in mmHg after one hour (intraocular pressure; concentration 0.3 (% not given))	Values of the intraocular pressure in mmHg after one hour (intraocular pressure; concentration 1.0 (% not given))	LD50 [1]	Reduction of the intraocular pressure in % after one hour (intraocular pressure; 0.3% concentration)	Reduction of the intraocular pressure in % after one hour (intraocular pressure; 1.0% concentration)	Reduction of the intraocular pressure in % after one hour (intraocular pressure; 3.0% concentration)
C=CCN1CCc2nc(N)sc2CC1.Cl.Cl [Compound B, 2-Amino-6-allyl-5,6,7,8-tetrahydro-4H-thiazolo[4,5-d]azepine dihydrochloride]	15 mmHg	14.5 mmHg	13 mmHg	10 mmHg	455 mg/kg	–	–	–
CCN1CCc2nc(N)oc2CC1 [Compound A, 2-Amino-6-ethyl-5,6,7,8-tetrahydro-4H-oxoazolo[4,5-d]azepine dihydrochloride]	–	–	–	–	2.21 mg/kg	-15%	-21%	-32%

Reference: patent US4400378A, “Pharmaceutical composition for the treatment of glaucoma” (priority 1981, dated 1983)
